Data on nine compounds can be found in patent US12589101B2, “Cyclodextrin protein drug conjugates” (Regeneron Pharmaceuticals, Inc., priority 2017, dated 2026).

≈ marks a conversion by molar mass, not a printed value. Read-outs that look alike come from different tables or passages of the source. Numbered stars: 1 amine (or outer) side, 2 acyl side, 3 side chain; on linkers, the order of the positions; unused ones are H or OH. Square brackets hold non-standard residues; d marks the D form. Peptide text beside a SMILES is read from it. * marks the point of attachment. Dolaproine = CO[C@@H]([C@@H]1CCCN1)[C@@H](C)C(=O)O; Dil = CC[C@H](C)[C@H](NC)[C@@H](CC(=O)O)OC; PABC = O=C(OCc1ccc(N[*:1])cc1)[*:2]; DBCO = C1#Cc2ccccc2N(*)Cc2ccccc21; X1 = C[C@@H](N*)[C@@H](O)c1ccccc1; Cit = NC(=O)NCCC[C@H](N)C(=O)O; PEG4 = NCCOCCOCCOCCOCCC(=O)O; Suc = O=C(CCC(=O)[*:2])[*:1]; NMeV = CN[C@H](C(=O)O)C(C)C

Usually solubility stands for the dissolved amount per volume that the medium holds.

Series [1] can be described thus: Solubility of linker-payloads (LC-MS standard curve, saturated solution). Type of series: physicochemical. As to conditions: for solubility at 10 min: thermodynamic from solid. The procedure: The following test assays the solubility of the linker-payloads with a cyclodextrin moiety and the linker-payloads without a cyclodextrin moiety.
The test compounds were dissolved in DMSO to build a standard curve using LC-MS method A or B. The test sample was dissolved in water and sonicated for 10 minutes, and then centrifuged. The upper clear solution was analyzed using the same method A or B and the solubility was calculated based on its peak area.
Detailed test procedures were as follows: • 1. […] 0.05 mg of compound was suspended in water (1 mL) and sonicated for 10 minutes. After centrifugation, the clear solution above was collected to provide the saturated sample solution. • 3. All the standard solutions A, B, C, D, E and sample solution were analyzed by LCMS (using the same method and same injection volume) to obtain the peak areas. • 4. Calculate the standard curve according to the data of A-D (X=concentration, Y=peak areas). • 5. Calculate to obtain the concentration of saturated sample solution according to the functions obtained above.

Another series deals with Cathepsin B (Homo sapiens, UniProt P07858). Nature of the series: Cathepsin B cleavage rate of linker-payloads (Example 66). To be noted: for CapB (%): pH 5.0, 37° C. It is filed as biochemical. How it is done: Step 1: Preparation of Cathepsin B buffer: 0.1 M NaOAc/0.01M DTT (pH5.0) Dissolve 8.3 g/L NaOAc, 1.54 g/L DTT in deionized water. Adjust pH to 5.0 with HCl/sodium hydroxide.
Step 2: Test Cleavage Rate
• 1. Prepare 25 μM of testing sample: To a 2-mL-tube was added 0.5 mg of testing sample, followed by the addition of 0.2 mL of DMSO. The solution was added dropwise into 0.8 mL of 0.1 M NaOAc/0.01 M DTT buffer. The obtained mixtures were sonicated for 5 minutes to obtain clear and colorless solutions. The pH value of the solution was around 5 according to pH test strip. • 2. Preheat assay buffer: 0.1 M NaOAc/0.01 M DTT (pH 5.0) • 3. Spiking solutions for test compounds: 25 μM Spiking solutions for test compounds: Add 2 μL of 5 mM stock solution into 398 μL of 0.1 M NaOAc/0.01 M DTT buffer (pH 5.0). • 4. Prepare 0.47 μg/μL Cathepsin B in 50 mM NaOAc/1 mM EDTA (pH 5.0). Put on ice. • 5. Without CA074 samples: Add 4 μL of 0.47 μg/μL Cathepsin B into 196 μL of 25 μM Spiking solutions (from step 2), incubate the tubes at 37° C. • 6. With CA074 samples: Add 4 μL of 0.47 μg/μL Cathepsin B with 4 μL of 10 mM Inhibitor (CA074) into 196 μL of 25 μM Spiking solutions (from step 2), incubate the tubes. • 7. After quenching, shake the plate and centrifuge them at 14000 rpm. • 8. Transfer 50 μL of the supernatant from each well into a 96-well sample plate containing 50 μL of ultra pure water (Millipore, ZMQS50F01) for LC/MS analysis. Step 3: Test reference compounds: • 9. Preheat assay buffer: 100 mM Na/K phosphate, pH 6.0, with 1.33 mM EDTA and 2 mM DTT. • 10. Prepare 0.024 μg/μL Cathepsin B: Add 1 μL of 0.47 μg/μL Cathepsin B stock into 19 μL of assay buffer (from step 11). • 11. Add 2 μL of 0.024 μg/μL Cathepsin B (from step 12) to a opaque 96-well plate. • 12. Add 96 μL of assay buffer to each sample. • 13. Add 2 μL of the 10 mM substrate Z-RR-MNA (200 μM final concentration). • 14. For negative control (With inhibitor), add 2 μL of 10 mM Inhibitor (CA074): Immediately read the samples in a kinetic mode at excitation of 340 nm/emission of 425 nm (Read the plate every 30 Second for 3 min). Step 4: Stability of Cathepsin B in incubation samples: • 15. Take 5 μL of incubation samples into 93 μL of assay buffer (from step 11), and then add 2 μL of 10 mM substrate (Z-RR-MNA). • 16. Incubate the samples at 37° C. for 2 min. • 17. Read the samples at excitation of 340 nm/emission of 425 nm.

Where [2] appears, read: water, aqueous, read-out: Aq. Solubility.
The mark [3] stands for this setting: water, water, read-out: Solubility.

On to `CC[C@H](C)[C@@H]([C@@H](CC(=O)N1CCC[C@H]1[C@H](OC)[C@@H](C)C(=O)N[C@H](C)[C@@H](O)c1ccccc1)OC)N(C)C(=O)[C@@H](NC(=O)[C@H](C(C)C)N(C)C(=O)OCc1ccc(NC(=O)[C@H](CCCNC(N)=O)NC(=O)[C@@H](NC(=O)[C@@H](CCCCNC(=O)COC2CCCCCc3c2nnn3CC2OC3OC4C(CO)OC(OC5C(CO)OC(OC6C(CO)OC(OC7C(CO)OC(OC8C(CO)OC(OC2C(O)C3O)C(O)C8O)C(O)C7O)C(O)C6O)C(O)C5O)C(O)C4O)NC(=O)CCOCCOCCOCCOCCNC(=O)OC[C@@H]2[C@@H]3CCC#CCC[C@@H]32)C(C)C)cc1)C(C)C` (stereo partly drawn) [Ex42], for which the solubility at 10 min is > 1000 µg/mL in series [1] (setting [2]) and 1000 µg/mL (≈ 352 µM) in series [1] (setting [3]). On Cathepsin B (Cathepsin B cleavage rate), the “CapB (%)” value is “% % (60< % % ≤70 CapB (%))”.

For the compound `CCC[C@@H]1O[C@@H]2C[C@H]3[C@@H]4CCC5=CC(=O)C=C[C@]5(C)[C@H]4[C@@H](O)C[C@]3(C)[C@]2(C(=O)COc2ccc(NC(=O)[C@H](C)NC(=O)[C@@H](NC(=O)[C@@H](CCCCNC(=O)COC3CCCCCc4c3nnn4CC3OC4OC5C(CO)OC(OC6C(CO)OC(OC7C(CO)OC(OC8C(CO)OC(OC9C(CO)OC(OC3C(O)C4O)C(O)C9O)C(O)C8O)C(O)C7O)C(O)C6O)C(O)C5O)NC(=O)CCOCCOCCOCCOCCNC(=O)CCC(=O)N3Cc4ccccc4C#Cc4ccccc43)C(C)C)cc2)O1` (stereo partly drawn) [Ex47], the “aqueous solubility (in words)” value in series [1] (water) was “below detectable levels”. Also, the solubility at 10 min in series [1] (setting [2]) is < 100 µg/mL. Besides, at Cathepsin B, the “Cathepsin B cleavage rate” value came out at 14%. Further, the “CapB (%)” value at Cathepsin B (Cathepsin B cleavage rate) was “% (% ≤50 CapB (%))”.

`CC[C@H](C)[C@@H]([C@@H](CC(=O)N1CCC[C@H]1[C@H](OC)[C@@H](C)C(=O)N[C@H](C)[C@@H](O)c1ccccc1)OC)N(C)C(=O)[C@@H](NC(=O)[C@H](C(C)C)N(C)C(=O)OCc1ccc(NC(=O)[C@H](CCCNC(N)=O)NC(=O)[C@@H](NC(=O)[C@@H](CCCCNC(=O)COC2CCCCCc3c2nnn3CC2OC3OC4C(CO)OC(OC5C(CO)OC(OC6C(CO)OC(OC7C(CO)OC(OC8C(CO)OC(OC2C(O)C3O)C(O)C8O)C(O)C7O)C(O)C6O)C(O)C5O)C(O)C4O)NC(=O)CCOCCOCCOCCOCCNC(=O)CCC(=O)N2Cc3ccccc3C#Cc3ccccc32)C(C)C)cc1)C(C)C` (stereo partly drawn) [Ex41]: the solubility at 10 min in series [1] (setting [2]) was 140 µg/mL (≈ 47.5 µM); in series [1] (setting [3]), 250 µg/mL (≈ 84.8 µM). In addition, the “CapB (%)” value on Cathepsin B (Cathepsin B cleavage rate) is given as “% % (70< % % ≤80 CapB (%))”.

`CC[C@H](C)[C@@H]([C@@H](CC(=O)N1CCC[C@H]1[C@H](OC)[C@@H](C)C(=O)N[C@H](C)[C@@H](O)c1ccccc1)OC)N(C)C(=O)[C@@H](NC(=O)[C@H](C(C)C)N(C)C(=O)OCc1ccc(NC(=O)[C@H](CCCNC(N)=O)NC(=O)[C@@H](NC(=O)CCOCCOCCOCCOCCNC(=O)CCC(=O)N2Cc3ccccc3C#Cc3ccccc32)C(C)C)cc1)C(C)C` [Ex36] ({DBCO-Suc-PEG4}-V[Cit][PABC][NMeV]V[Dil][Dolaproine]-X1): the solubility at 10 min in series [1] (setting [2]) and in series [1] (setting [3]) was < 100 µg/mL in each case. In addition, the “CapB (%)” value on Cathepsin B (Cathepsin B cleavage rate) is listed as “% % (60< % % ≤70 CapB (%))”.

Take `CCC[C@@H]1O[C@@H]2C[C@H]3[C@@H]4CCC5=CC(=O)C=C[C@]5(C)[C@H]4[C@@H](O)C[C@]3(C)[C@]2(C(=O)COc2ccc(NC(=O)[C@H](C)NC(=O)[C@@H](NC(=O)CCOCCOCCOCCOCCNC(=O)CCC(=O)N3Cc4ccccc4C#Cc4ccccc43)C(C)C)cc2)O1` [Ex45, 1-(4-{2-azatricyclo[10.4.0.0^4,9]hexadeca-1(12),4(9),5,7,13,15-hexaen-10-yn-2-yl}-4-oxobutanamido)-N-[(1S)-1-{[(1S)-1-[(4-{2-[(1S,2S,4R,6R,8S,9S,11 S,12S,13R)-11-hydroxy-9,13-dimethyl-16-oxo-6-propyl-5,7-dioxapentacyclo[10.8.0.0^2,9.0^4,8.0^13,18]icosa-14,17-dien-8-yl]-2-oxoethoxy}phenyl)carbamoyl]ethyl]carbamoyl}-2-methylpropyl]-3,6,9,12-tetraoxapentadecan-15-amide]: the solubility at 10 min in series [1] (setting [2]) and in series [1] (setting [3]) was < 100 µg/mL throughout. Also, the “CapB (%)” value at Cathepsin B (Cathepsin B cleavage rate) is recorded as “% (% ≤50 CapB (%))”.

Take `CC(C)[C@H](NC(=O)[C@@H](CCCCNC(=O)CCOCCOCCOCCOCCNC(=O)COC1CCCCCc2nnn(CC3OC4OC5C(CO)OC(OC6C(CO)OC(OC7C(CO)OC(OC8C(CO)OC(OC9C(CO)OC(OC3C(O)C4O)C(O)C9O)C(O)C8O)C(O)C7O)C(O)C6O)C(O)C5O)c21)NC(=O)CCOCCOCCOCCOCCNC(=O)CCC(=O)N1Cc2ccccc2C#Cc2ccccc21)C(=O)N[C@@H](C)C(=O)Nc1ccc2c(c1)[C@@]1(C)CCC[C@](C)(C(=O)NC(=O)[C@@]3(C)CCC[C@]4(C)c5cc(O)ccc5CC[C@@H]34)[C@@H]1CC2` (stereo partly drawn) [Ex53, DIBAC-suc-PEG4-D-Lys(PEG4-COT-CD)-Val-Ala-1d]: the solubility at 10 min in series [1] (water, Aq. Solubility (mg/mL)) stood at 330 µg/mL (≈ 119 µM); in series [1] (water, Solubility), 180 µg/mL (≈ 65 µM). In addition, the “CapB (%)” value at Cathepsin B (Cathepsin B cleavage rate) is listed as “% (50< % ≤60 CapB (%))”.

Compound `CCCC1O[C@@H]2C[C@H]3[C@@H]4C[C@H](F)C5=CC(=O)C=C[C@]5(C)[C@@]4(F)[C@@H](O)C[C@]3(C)[C@]2(C(=O)COc2ccc(NC(=O)OCc3ccc(NC(=O)[C@H](CCCNC(N)=O)NC(=O)[C@@H](NC(=O)CCOCCOCCOCCOCCNC(=O)CCC(=O)N4Cc5ccccc5C#Cc5ccccc54)C(C)C)cc3)cc2)O1` (stereo partly drawn) [Ex61, DIBAC-suc-PEG4-vcPAB-1i] came in with a Solubility in series [1] (10 min) of 0.01 mg/ mL mg/mL. For the same compound, the solubility at 10 min is 10 µg/mL (≈ 6.68 µM) in series [1] (water, Aq. Solubility (mg/mL)) and < 10 µg/mL in series [1] (water, Solubility). Also, the capB at Cathepsin B (Cathepsin B cleavage rate, Table 8A) is recorded as <5%. Besides, the “CapB (%)” value at Cathepsin B (Cathepsin B cleavage rate) is “% (% ≤50 CapB (%))”.

Compound `CC(C)[C@H](NC(=O)[C@@H](CCCCNC(=O)CCOCCOCCOCCOCCNC(=O)COC1CCCCCc2nnn(CC3OC4OC5C(CO)OC(OC6C(CO)OC(OC7C(CO)OC(OC8C(CO)OC(OC9C(CO)OC(OC3C(O)C4O)C(O)C9O)C(O)C8O)C(O)C7O)C(O)C6O)C(O)C5O)c21)NC(=O)CCOCCOCCOCCOCCNC(=O)CCC(=O)N1Cc2ccccc2C#Cc2ccccc21)C(=O)N[C@@H](CCCNC(N)=O)C(=O)Nc1ccc(COC(=O)NCCOc2ccc3c(c2)[C@@]2(C)CCC[C@](C)(C(=O)NC(=O)[C@@]4(C)CCC[C@]5(C)c6cc(O)ccc6CC[C@@H]45)[C@@H]2CC3)cc1` (stereo partly drawn) [Ex50] yielded a solubility at 10 min in series [1] (water, Solubility) of 330 µg/mL (≈ 108 µM). Besides, the “CapB (%)” value on Cathepsin B (Cathepsin B cleavage rate) is “% (% ≤50 CapB (%))”.

In the case of `CC[C@H](C)[C@@H]([C@@H](CC(=O)N1CCC[C@H]1[C@H](OC)[C@@H](C)C(=O)N[C@H](C)[C@@H](O)c1ccccc1)OC)N(C)C(=O)[C@@H](NC(=O)[C@H](C(C)C)N(C)C(=O)OCc1ccc(NC(=O)[C@H](CCCNC(N)=O)NC(=O)[C@@H](NC(=O)[C@@H](CCCCNC(=O)CCOCCOCCOCCOCCNC(=O)COC2CCCCCc3c2nnn3CC2OC3OC4C(CO)OC(OC5C(CO)OC(OC6C(CO)OC(OC7C(CO)OC(OC8C(CO)OC(OC2C(O)C3O)C(O)C8O)C(O)C7O)C(O)C6O)C(O)C5O)C(O)C4O)NC(=O)CCOCCOCCOCCOCCNC(=O)CCC(=O)N2Cc3ccccc3C#Cc3ccccc32)C(C)C)cc1)C(C)C` (stereo partly drawn) [Ex43], on Cathepsin B (Cathepsin B cleavage rate), the “CapB (%)” value is “% (50< % ≤60 CapB (%))”.
